In BindingDB's records for doi:10.1021/jm020572p (University of North Carolina at Chapel Hill, 2003) one finds Ki data, which are given here for one compound.

Test [1] addresses T1, Muscarinic acetylcholine receptor M5 (Homo sapiens, UniProt P08912).
T1 sequence (P08912 whole entry): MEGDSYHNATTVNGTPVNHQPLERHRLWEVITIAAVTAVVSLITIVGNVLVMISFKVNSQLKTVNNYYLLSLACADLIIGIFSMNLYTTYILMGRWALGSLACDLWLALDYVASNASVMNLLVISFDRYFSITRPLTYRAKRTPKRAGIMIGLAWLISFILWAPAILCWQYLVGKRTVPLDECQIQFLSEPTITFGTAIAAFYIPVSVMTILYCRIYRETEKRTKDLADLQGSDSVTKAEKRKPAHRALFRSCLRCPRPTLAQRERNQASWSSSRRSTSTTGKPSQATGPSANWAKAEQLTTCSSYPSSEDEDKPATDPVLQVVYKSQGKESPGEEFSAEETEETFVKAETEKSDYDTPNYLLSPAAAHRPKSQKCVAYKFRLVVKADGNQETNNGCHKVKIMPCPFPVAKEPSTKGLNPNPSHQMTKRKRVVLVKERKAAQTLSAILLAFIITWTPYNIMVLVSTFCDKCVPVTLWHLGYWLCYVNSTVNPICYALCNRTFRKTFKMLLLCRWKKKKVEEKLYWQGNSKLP
In words: Binding affinity of compound was determined towards human Muscarinic acetylcholine receptor M5 using [3H]QNB radioligand.

Test [2] concerns the target T2, Muscarinic acetylcholine receptor M2 (Homo sapiens, UniProt P08172).
T2 sequence (P08172 whole entry): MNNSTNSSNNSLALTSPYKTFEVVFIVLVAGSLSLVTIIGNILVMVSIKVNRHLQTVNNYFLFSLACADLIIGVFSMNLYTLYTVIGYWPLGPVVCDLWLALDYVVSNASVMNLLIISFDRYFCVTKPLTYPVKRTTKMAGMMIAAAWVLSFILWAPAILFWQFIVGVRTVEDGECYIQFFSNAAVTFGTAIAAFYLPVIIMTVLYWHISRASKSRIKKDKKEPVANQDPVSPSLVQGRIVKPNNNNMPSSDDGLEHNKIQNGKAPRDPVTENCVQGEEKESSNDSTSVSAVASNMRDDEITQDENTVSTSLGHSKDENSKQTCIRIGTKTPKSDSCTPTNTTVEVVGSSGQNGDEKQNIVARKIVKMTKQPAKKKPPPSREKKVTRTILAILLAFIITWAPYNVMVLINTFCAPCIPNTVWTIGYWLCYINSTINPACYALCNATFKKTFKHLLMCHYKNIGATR
Put plainly: Binding affinity of compound was determined towards human Muscarinic acetylcholine receptor M2 using [3H]QNB radioligand.

What is called Ki is the equilibrium dissociation constant of an inhibitor or competing ligand from its target. Low values mean higher affinity, high ones lower affinity. For the compound `CCOC(=O)C1CN2CC(CCC2COCc2ccccc2)C1=O` (stereo not drawn) [exo-8-Benzyloxymethyl-4-hydroxy-1-aza-bicyclo[3.3.1]non-3-ene-3-carboxylic acid ethyl ester], the values for the Ki in test [1] and in test [2] were 560 nM and 80 nM, respectively.
